Article PMC10304880, “Novel Tryptanthrin Derivatives with Selectivity as c–Jun N–Terminal Kinase (JNK) 3 Inhibitors” (Molecules, 2023)

Assays:
JNK1 = target: T1, JNK1 (Homo sapiens, UniProt P45983); experiment: KINOMEscan JNK1 binding (Kd); settings: 12-point series, max 33 μM, duplicate
T1 construct: purchased Eurofins Pharma Discovery (KINOMEscan service)
Method: (§1) All compounds were evaluated for their ability to bind to JNK1-3 using the KINOMEscan platform.
(§2) Compounds were submitted for dissociation constant (Kd) determination using KINOMEscan (Eurofins Pharma Discovery, San Diego, CA, USA), as described previously. […] Primary screening at fixed concentrations of compounds was performed in duplicate. To determine dissociation constant Kd, a 12-point half-log dilution series (a maximum concentration of 33 μM) was used.

JNK2 = target: T2, JNK2 (Homo sapiens, UniProt P45984); experiment: KINOMEscan JNK2 binding (Kd); settings: 12-point series, max 33 μM, duplicate
T2 construct: purchased Eurofins Pharma Discovery (KINOMEscan service)
Method: as §1, §2

JNK3 = target: T3, JNK3 (Homo sapiens, UniProt P53779); experiment: KINOMEscan JNK3 binding (Kd); settings: for Kd: KINOMEscan, 12-point series, max 33 μM, duplicate; for Selectivity Index JNK1/JNK3 / Selectivity Index JNK2/JNK3: ratio of Kd values
T3 construct: purchased Eurofins Pharma Discovery (KINOMEscan service)
Method: as §1, §2

[1] = CellTiter-Glo cytotoxicity in THP-1Blue cells; format: cell-based; settings: human, 24 h incubation
Method: (§3) Prior to evaluation of the compounds in cell-based assays, we measured their cytotoxicity in human monocytic THP-1Blue and MonoMac-6 cells during a 24 h incubation. […] Thus, these compounds were all excluded from subsequent testing in these cell lines.
(§4) Cytotoxicity was analyzed with a CellTiter-Glo Luminescent Cell Viability Assay Kit from Promega (Madison, WI, USA), according to the manufacturer’s protocol. Cells were treated with the compound under investigation and cultivated for 24 h. After treatment, the cells were allowed to equilibrate to room temperature for 30 min, substrate was added, and the luminescence measured using a Fluoroscan Ascent FL (Thermo Fisher Scientific, Waltham, MA, USA). The cell IC50 values were calculated by plotting the percentage inhibition against the logarithm of inhibitor concentration (at least five points).

[2] = CellTiter-Glo cytotoxicity in MonoMac-6 cells; format: cell-based; settings: human, 24 h incubation
Method: as §3, §4

[3] = tested on: NF-κB/AP-1 transcriptional activity in THP-1Blue cells; experiment: LPS-induced NF-κB/AP-1 alkaline phosphatase reporter assay in THP-1Blue cells; format: cell-based; settings: Homo sapiens, 30 min pretreatment, 250 ng/mL LPS, 24 h; read-out: AP Production in THP–1Blue IC50
Method: Activation of AP-1/NF-κB was measured using an alkaline phosphatase reporter gene assay in THP1-Blue cells. Human monocytic THP-1Blue cells were stably transfected with a secreted embryonic alkaline phosphatase gene that was under the control of a promoter inducible by AP-1/NF-κB.
(§5) Figure 2 Effect of compounds 4d and 4e on NF-κB/AP-1 activity and IL-6 production. Panel (A) THP-1Blue cells were pretreated with the indicated compounds or DMSO for 30 min, followed by addition of 250 ng/mL LPS or buffer for 24 h. […] Panel (B) MonoMac-6 cells were pretreated with the indicated compounds or DMSO for 30 min, followed by addition of 250 ng/mL LPS or buffer for 24 h. Production of IL-6 in the supernatants was evaluated with ELISA. The data in each panel are presented as the mean ± S.D. of triplicate samples from one experiment that is representative of three independent experiments.

[4] = tested on: IL-6 production in MonoMac-6 cells; experiment: LPS-induced IL-6 production in MonoMac-6 cells (ELISA); format: cell-based, human; settings: 250 ng/mL LPS, 24 h
Method: All cells were cultured at 37 °C in a humidified atmosphere containing 5% CO2. Human THP-1Blue monocytic cells obtained from InvivoGen (San Diego, CA, USA) were cultured in RPMI 1640 medium (Mediatech Inc., Herndon, VA, USA) supplemented with 10% (v/v) fetal bovine serum (FBS), 4.5 g/L glucose, 100 μg/mL streptomycin, 100 U/mL penicillin, 100 μg/mL phleomycin (Zeocin), and 10 μg/mL blasticidin S. Human monocyte-macrophage MonoMac-6 cells (Deutsche Sammlung von Mikroorganismen und Zellkulturen GmbH, Braunschweig, Germany) were grown in RPMI 1640 medium supplemented with 10% (v/v) FBS, 10 μg/mL bovine insulin, 100 μg/mL streptomycin, and 100 U/mL penicillin.
as §5, with “Panel” for “Figure 2 Effect of compounds 4d and 4e on NF-κB/AP-1 activity and IL-6 production. Panel”

[5] = Homo sapiens, MONO-MAC-6, 30 min pretreatment

T1 sequence (P45983 whole entry): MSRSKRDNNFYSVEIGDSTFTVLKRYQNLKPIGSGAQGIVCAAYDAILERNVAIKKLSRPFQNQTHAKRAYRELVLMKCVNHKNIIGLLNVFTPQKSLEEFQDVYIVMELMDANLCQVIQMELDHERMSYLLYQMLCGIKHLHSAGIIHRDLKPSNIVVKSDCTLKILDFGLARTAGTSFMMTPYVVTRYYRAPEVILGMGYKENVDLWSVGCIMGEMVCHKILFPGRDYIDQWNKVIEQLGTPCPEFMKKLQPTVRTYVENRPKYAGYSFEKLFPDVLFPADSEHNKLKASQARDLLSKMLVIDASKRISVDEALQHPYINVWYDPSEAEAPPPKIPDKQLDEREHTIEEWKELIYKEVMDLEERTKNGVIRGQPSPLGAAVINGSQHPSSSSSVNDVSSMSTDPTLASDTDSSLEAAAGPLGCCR
T2 sequence (P45984 whole entry): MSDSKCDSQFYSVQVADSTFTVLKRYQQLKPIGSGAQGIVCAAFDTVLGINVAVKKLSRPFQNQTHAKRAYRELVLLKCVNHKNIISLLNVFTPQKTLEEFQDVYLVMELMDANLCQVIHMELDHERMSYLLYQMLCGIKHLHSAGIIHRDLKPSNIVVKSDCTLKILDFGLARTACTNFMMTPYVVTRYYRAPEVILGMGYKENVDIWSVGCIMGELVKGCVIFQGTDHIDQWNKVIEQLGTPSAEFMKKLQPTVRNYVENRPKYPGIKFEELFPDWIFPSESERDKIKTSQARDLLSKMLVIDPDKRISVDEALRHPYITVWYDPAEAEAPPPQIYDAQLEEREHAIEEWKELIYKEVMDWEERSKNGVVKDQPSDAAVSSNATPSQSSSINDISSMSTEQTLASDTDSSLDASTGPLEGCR
T3 sequence (P53779 whole entry): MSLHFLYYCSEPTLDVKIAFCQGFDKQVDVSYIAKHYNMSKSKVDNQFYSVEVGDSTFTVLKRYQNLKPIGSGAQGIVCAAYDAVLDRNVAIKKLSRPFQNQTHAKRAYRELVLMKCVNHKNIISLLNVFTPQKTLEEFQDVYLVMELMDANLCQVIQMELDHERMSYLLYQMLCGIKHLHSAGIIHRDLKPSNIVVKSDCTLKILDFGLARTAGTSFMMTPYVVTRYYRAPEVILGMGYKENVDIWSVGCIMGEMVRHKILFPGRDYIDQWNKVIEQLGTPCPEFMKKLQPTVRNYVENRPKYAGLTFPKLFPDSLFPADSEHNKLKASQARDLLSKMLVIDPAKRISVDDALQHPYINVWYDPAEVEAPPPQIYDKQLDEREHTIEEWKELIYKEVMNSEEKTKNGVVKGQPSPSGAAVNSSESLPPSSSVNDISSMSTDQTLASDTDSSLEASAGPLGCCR

| Structure (SMILES) | Kd (JNK1) | Kd (JNK2) | selectivity index (JNK3 versus JNK1 and JNK2) (JNK3) | Kd (JNK3) | Selectivity Index JNK1/JNK3 (JNK3) | Selectivity Index JNK2/JNK3 (JNK3) | IC50 [3] | IC50 [4, 5] | melting point | IC50 ([4]; 30 min pretreatment) | IC50 at 24 h [1] | IC50 at 24 h [2] |
| --- | --- | --- | --- | --- | --- | --- | --- | --- | --- | --- | --- | --- |
| O=c1c2cc(Br)ccc2nc2n1-c1ccccc1C2=NO [Compound 4j, 2-Bromoindolo[2,1-b]quinazolin-6,12-dione Oxime] | 4.1 ± 0.6 µM | 7.4 ± 0.6 µM | – | 1.9 ± 0.4 µM | 2.2 | 3.9 | – | – | > 225 °C (dec.) | – | 12.5 ± 2.3 µM | 8.2 ± 1.6 µM |
| O=c1c2ccc(Br)cc2nc2n1-c1ccccc1C2=NO [Compound 4k, 3-Bromoindolo[2,1-b]quinazolin-6,12-dione Oxime] | > 30 µM | > 30 µM | – | 5.7 ± 1.8 µM | >6 | >6 | – | – | > 225 °C (dec.) | – | 24.1 ± 2.7 µM | > 50 µM |
| O=c1c2ccc(F)cc2nc2n1-c1ccccc1C2=NO [Compound 4l, 3-Fluoroindolo[2,1-b]quinazolin-6,12-dione Oxime] | 1.1 ± 0.1 µM | 0.72 ± 0.22 µM | – | 0.43 ± 0.04 µM | 2.6 | 1.7 | 5 ± 0.1 µM | < 1 µM | > 225 °C (dec.) | 0.61 ± 0.04 µM | > 50 µM | > 50 µM |
| O=c1c2cc([N+](=O)[O-])ccc2nc2n1-c1ccccc1C2=NO [Compound 4n, 2-Nitroindolo[2,1-b]quinazolin-6,12-dione Oxime] | > 30 µM | > 30 µM | – | 8.7 ± 1 µM | >3.9 | >3.9 | – | 9.6 ± 1.3 µM | > 225 °C (dec.) | – | 39.3 ± 3.1 µM | > 50 µM |
| Cc1ccc2c(c1)C(=NO)c1nc3ccc(C)cc3c(=O)n1-2 [Compound 4o, 2,8-Dimethylindolo[2,1-b]quinazolin-6,12-dione Oxime] | 3.7 ± 0.5 µM | 6.9 ± 0.2 µM | – | 0.87 ± 0.16 µM | 4.3 | 7.9 | 8.1 ± 0.1 µM | < 1 µM | > 300 °C (dec.) | 0.8 ± 0.1 µM | > 50 µM | > 50 µM |
| Cc1cccc2c1C(=NO)c1nc3cccc(C)c3c(=O)n1-2 [Compound 4p, 1,7-Dimethylindolo[2,1-b]quinazolin-6,12-dione Oxime] | > 30 µM | > 30 µM | – | > 30 µM | – | – | > 50 µM | > 50 µM | 190 to 191 °C | – | > 50 µM | > 50 µM |
| O=c1c2cc(Br)ccc2nc2n1-c1ccc(Br)cc1C2=NO [Compound 4t, 2,8-Dibromoindolo[2,1-b]quinazolin-6,12-dione Oxime] | > 30 µM | > 30 µM | – | > 30 µM | – | – | – | – | 250 to 251 °C | – | 6.6 ± 0.3 µM | 9.2 ± 2.1 µM |

Further lines, with some results ahead:

| Kd (JNK1) | Kd (JNK2) | selectivity index (JNK3 versus JNK1 and JNK2) (JNK3) | Kd (JNK3) | Selectivity Index JNK1/JNK3 (JNK3) | Selectivity Index JNK2/JNK3 (JNK3) | IC50 [3] | IC50 [4, 5] | melting point | IC50 ([4]; 30 min pretreatment) | Structure (SMILES) | IC50 at 24 h [1] | IC50 at 24 h [2] |
| --- | --- | --- | --- | --- | --- | --- | --- | --- | --- | --- | --- | --- |
| > 30 µM | > 30 µM | > 7 | 0.86 ± 0.042 µM | >40 | >40 | – | – | – | – | O=c1c2ccccc2nc2n1-c1ccc([N+](=O)[O-])cc1C2=NO [Compound 4a, 8-Nitroindolo[2,1-b]quinazolin-6,12-dione Oxime] | 8.4 ± 0.9 µM | 4.1 ± 0.7 µM |
| 3.2 ± 0.21 µM | 8.5 ± 3.2 µM | > 7 | 0.41 ± 0.07 µM | 7.8 | 20.7 | 2.1 ± 0.7 µM | 15.5 ± 3.8 µM | > 225 °C (dec.) | – | O=c1c2ccccc2nc2n1-c1ccc(Br)cc1C2=NO [Compound 4b, 8-Bromoindolo[2,1-b]quinazolin-6,12-dione Oxime] | > 50 µM | > 50 µM |
| 2.6 ± 0.4 µM | 1.3 ± 0.01 µM | – | 0.49 ± 0.09 µM | 5.3 | 2.7 | 0.7 ± 0.2 µM | – | > 225 °C (dec.) | – | CCc1ccc2c(c1)C(=NO)c1nc3ccccc3c(=O)n1-2 [Compound 4c, 8-Ethylindolo[2,1-b]quinazolin-6,12-dione Oxime] | > 50 µM | 13.3 ± 1.3 µM |
| > 30 µM | > 30 µM | – | > 30 µM | – | – | – | – | > 225 °C (dec.) | – | O=c1c2cc(Br)ccc2nc2n1-c1ccc([N+](=O)[O-])cc1C2=NO [Compound 4f, 2-Bromo-8-nitroindolo[2,1-b]quinazolin-6,12-dione Oxime] | 3.8 ± 0.9 µM | 2.7 ± 0.6 µM |
| 6.2 ± 1.8 µM | 14 ± 0.7 µM | – | 0.4 ± 0.04 µM | 15.5 | 35 | > 50 µM | 25.2 ± 5.3 µM | > 225 °C (dec.) | – | Cc1cccc2c1C(=NO)c1nc3ccccc3c(=O)n1-2 [Compound 4g, 7-Methylindolo[2,1-b]quinazolin-6,12-dione Oxime] | > 50 µM | > 50 µM |
| > 30 µM | > 30 µM | – | 11 ± 1.4 µM | >3 | >3 | – | – | > 225 °C (dec.) | – | O=c1c2cc(C(F)(F)F)ccc2nc2n1-c1ccccc1C2=NO [Compound 4i, 2-Trifluoromethylindolo[2,1-b]quinazolin-6,12-dione Oxime] | 5.6 ± 1.2 µM | 5.7 ± 1.2 µM |
| > 30 µM | > 30 µM | – | 6.1 ± 0.4 µM | >5.6 | >5.6 | 8.3 ± 0.2 µM | 1.9 ± 0.3 µM | > 225 °C (dec.) | – | O=c1c2ccc([N+](=O)[O-])cc2nc2n1-c1ccccc1C2=NO [Compound 4m, 3-Nitroindolo[2,1-b]quinazolin-6,12-dione Oxime] | > 50 µM | > 50 µM |
| 4.6 ± 0.6 µM | 5.8 ± 1.6 µM | – | 3.2 ± 1.1 µM | 1.4 | 1.8 | – | – | 292 to 293 °C | – | COc1ccc2c(c1)-n1c(nc3cc(OC)ccc3c1=O)C2=NO [Compound 4r, 3,9-Dimethoxylindolo[2,1-b]quinazolin-6,12-dione Oxime] | 8.3 ± 1.3 µM | 4.3 ± 0.9 µM |
| > 30 µM | > 30 µM | – | > 30 µM | – | – | – | – | > 300 °C (dec.) | – | O=c1c2ccc(Br)cc2nc2n1-c1cc(Br)ccc1C2=NO [Compound 4s, 3,9-Dibromoindolo[2,1-b]quinazolin-6,12-dione Oxime] | 49.1 ± 8.3 µM | 16.9 ± 3.4 µM |
| 0.47 ± 0.08 µM | 1.5 ± 0.6 µM | – | 0.27 ± 0.01 µM | 1.7 | – | 3.5 ± 1.2 µM | – | 206 to 208 °C | – | O=C(ON=C1c2ccccc2-n2c1nc1ccccc1c2=O)c1ccc2c(c1)OCO2 [Compound 5e, 6-(((Benzo[d][1,3]dioxol-5-carbonyl)oxy)imino)indolo[2,1-b]quinazolin-12(6H)-one] | > 50 µM | 27.3 ± 1.4 µM |
| – | – | – | – | – | – | 3.8 ± 1.1 µM | – | – | – | O=c1c2ccccc2nc2n1-c1ccccc1C2=NO [TRYP-Ox, tryptanthrin-6-oxime, reference compound] | > 50 µM | > 50 µM |
